Test results reported in patent US9108921B2, “Therapeutic compounds and compositions” (AGIOS PHARMACEUTICALS, INC, priority 2014, dated 2015).

Columns and labels:
Format in all cases: biochemical
[1] = biological target: PKR R532W (Homo sapiens, UniProt P30613, R532W); test: PKR Mutant Assay, AC50 against PKR R532W; details: mutant PKR R532W enzyme
Protocol: (§1) • PKR or PKR mutant enzyme solution was diluted in assay buffer. • 2 μL of test compound was added into wells first, and then 180 μL reaction mix was added. • Reactions mixture with test compound was assembled except for ADP, and plates were stored for 60 minutes at room temperature. • 20 uL ADP was added to start reaction at room temperature and reaction progress was measured as changes in absorbance at 340 nm wavelength at room temperature.
(§2) Test Compound Preparation: • Test compound stock was made at 100× concentration in 100% DMSO (10 mM) • 1 to 3 dilutions were made for 11 points (i.e. 50 μl of first concentration added to 100 μl 100% DMSO to yield 3.33 mM, 50 μl of this added to 100 μl DMSO to yield 1.11 mM, and so forth) • 1 to 100 dilution into assay (2 μl in 200 μl) yielded starting concentration of 100 μM, decreasing 3 fold for 11 points. Assay Buffer: 100 mM KCl, 50 mM Tris 7.5, 5 mM MgCl2, 1 mM DTT, 0.03% BSA Reaction Mixture: PKR mutant enzyme: 80-400 ng/well; ADP: 0.22-1.65 mM; PEP: 0.1-0.5 mM; NADH: 180 uM; LDH: 0.5 units (Sigma#59023); DTT: 1 mM; BSA: 0.03%.

[2] = biological target: PKR WT (Homo sapiens, UniProt P30613); test: PKR WT enzymatic AC50 assay; details: wild type PKR
Protocol: as §1, §2

[3] = biological target: PKR R510Q (Homo sapiens, UniProt P30613, R510Q); test: PKR Mutant Assay, AC50 against PKR R510Q; details: mutant PKR R510Q enzyme
Protocol: as §1, §2

Chain of PKR R532W (P30613 whole entry R532W): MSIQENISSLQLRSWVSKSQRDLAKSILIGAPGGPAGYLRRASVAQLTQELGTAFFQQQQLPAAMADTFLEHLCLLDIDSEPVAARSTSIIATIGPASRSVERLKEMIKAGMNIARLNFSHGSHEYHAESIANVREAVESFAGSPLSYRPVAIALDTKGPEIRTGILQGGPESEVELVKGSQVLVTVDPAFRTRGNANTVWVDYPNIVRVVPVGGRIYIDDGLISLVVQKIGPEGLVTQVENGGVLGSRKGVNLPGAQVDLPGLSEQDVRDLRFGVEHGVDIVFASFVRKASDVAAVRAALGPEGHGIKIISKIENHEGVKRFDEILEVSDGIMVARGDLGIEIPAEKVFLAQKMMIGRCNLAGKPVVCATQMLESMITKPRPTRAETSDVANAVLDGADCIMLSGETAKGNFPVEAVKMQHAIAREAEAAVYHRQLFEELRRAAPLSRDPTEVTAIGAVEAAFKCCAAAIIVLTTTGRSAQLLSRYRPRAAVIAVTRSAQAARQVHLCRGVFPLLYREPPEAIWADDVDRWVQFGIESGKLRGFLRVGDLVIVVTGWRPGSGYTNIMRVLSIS
Chain of PKR R510Q (P30613 whole entry R510Q): as the sequence (P30613 whole entry R532W) above, with R510Q, W532R counted along it
Chain of PKR WT (P30613 whole entry): as the sequence (P30613 whole entry R532W) above, with W532R counted along it

Row | AC50 [1] [nM] | AC50 [2] [nM] | AC50 [3] [nM] | SMILES
1 | < 100 | < 100 | < 100 | CC1(CC2(O)CCN(C(=O)c3ccc(NS(=O)(=O)c4cccc5scnc45)cc3)CC2)CC1 [Compound 132, N-(4-(4-hydroxy-4-((1-methylcyclopropyl)methyl)piperidine-1-carbonyl)phenyl)benzo[d]thiazole-4-sulfonamide]
2 | < 100 | < 100 | < 100 | O=C(c1ccc(NS(=O)(=O)c2ccc(F)c3cccnc23)cc1)N1CCC(O)(Cc2ccccc2F)CC1 [Compound 158, 5-fluoro-N-(4-(4-(2-fluorobenzyl)-4-hydroxypiperidine-1-carbonyl)phenyl)quinoline-8-sulfonamide]
3 | < 100 | < 100 | 101 to 1000 | C=C(C)CC1(O)CCN(C(=O)c2ccc(NS(=O)(=O)c3cccc4scnc34)cc2)CC1 [Compound 181, N-(4-(4-hydroxy-4-(2-methylallyl)piperidine-1-carbonyl)phenyl)benzo[d]thiazole-4-sulfonamide]
4 | < 100 | < 100 | 101 to 1000 | O=C(c1ccc(NS(=O)(=O)c2cccc3nccnc23)cc1)N1CCC(O)(CC2CC2)CC1 [Compound 188, N-(4-(4-(cyclopropylmethyl)-4-hydroxypiperidine-1-carbonyl)phenyl)quinoxaline-5-sulfonamide]
5 | < 100 | < 100 | 101 to 1000 | O=C(c1ccc(NS(=O)(=O)c2cccc3scnc23)cc1)N1CCC(O)(CC2CC2)CC1 [Compound 198, N-(4-(4-(cyclopropylmethyl)-4-hydroxypiperidine-1-carbonyl)phenyl)benzo[d]thiazole-4-sulfonamide]
6 | 101 to 1000 | < 100 | 101 to 1000 | O=C(c1ccc(NS(=O)(=O)c2cccc3cccnc23)cc1)N1CCC(O)(/C=C/C(F)F)CC1 [Compound 200]
7 | < 100 | < 100 | 101 to 1000 | O=C(c1ccc(NS(=O)(=O)c2ccc(F)c3cccnc23)cc1)N1CCC(O)(CC2CCC2)CC1 [Compound 201, N-(4-(4-(cyclobutylmethyl)-4-hydroxypiperidine-1-carbonyl)phenyl)-5-fluoroquinoline-8-sulfonamide]
8 | < 100 | < 100 | 101 to 1000 | CC(C)CC1(O)CCN(C(=O)c2ccc(NS(=O)(=O)c3cc(F)cc4scnc34)cc2)CC1 [Compound 202, 6-fluoro-N-(4-(4-hydroxy-4-isobutylpiperidine-1-carbonyl)phenyl)benzo[d]thiazole-4-sulfonamide]
9 | < 100 | < 100 | 101 to 1000 | O=C(c1ccc(NS(=O)(=O)c2ccc(F)c3cccnc23)cc1)N1CCC(O)(Cc2ccccc2C(F)(F)F)CC1 [Compound 208, 5-fluoro-N-(4-(4-hydroxy-4-(2-(trifluoromethyl)benzyl)piperidine-1-carbonyl)phenyl)quinoline-8-sulfonamide]
10 | < 100 | < 100 | 101 to 1000 | CC(C)CC1(CO)CCN(C(=O)c2ccc(NS(=O)(=O)c3cccc4scnc34)cc2)CC1 [Compound 216, N-(4-(4-(hydroxymethyl)-4-isobutylpiperidine-1-carbonyl)phenyl)benzo[d]thiazole-4-sulfonamide]
11 | < 100 | < 100 | 101 to 1000 | CC(C)CC1(CO)CCN(C(=O)c2ccc(NS(=O)(=O)c3cccc4nccnc34)cc2)CC1 [Compound 219, N-(4-(4-(hydroxymethyl)-4-isobutylpiperidine-1-carbonyl)phenyl)quinoxaline-5-sulfonamide]
12 | < 100 | < 100 | 101 to 1000 | O=C(c1ccc(NS(=O)(=O)c2cccc3nccnc23)cc1)N1CCC(O)(CCC(F)(F)F)CC1 [Compound 221, N-(4-(4-hydroxy-4-(3,3,3-trifluoropropyl)piperidine-1-carbonyl)phenyl)quinoxaline-5-sulfonamide]
13 | 101 to 1000 | 101 to 1000 | 101 to 1000 | O=C(c1ccc(NS(=O)(=O)c2ccc(F)c3cccnc23)cc1)N1CCC(O)(c2cccc(F)c2F)CC1 [Compound 227, N-(4-(4-(2,3-difluorophenyl)-4-hydroxypiperidine-1-carbonyl)phenyl)-5-fluoroquinoline-8-sulfonamide]
14 | 101 to 1000 | 101 to 1000 | 101 to 1000 | O=C(c1ccc(NS(=O)(=O)c2cccc3nccnc23)cc1)N1CCC(O)(CCC(F)F)CC1 [Compound 230, N-(4-(4-(3,3-difluoropropyl)-4-hydroxypiperidine-1-carbonyl)phenyl)quinoxaline-5-sulfonamide]
15 | 101 to 1000 | 101 to 1000 | 1010 to 10000 | O=C(c1ccc(NS(=O)(=O)c2ccc(F)c3scnc23)cc1)N1CCC(O)(c2ccccc2Cl)CC1 [Compound 231]
16 | 101 to 1000 | 101 to 1000 | 101 to 1000 | O=C(c1c(F)cc(NS(=O)(=O)c2cccc3cccnc23)cc1F)N1CCC(O)(c2ccccc2Cl)CC1 [Compound 232, N-(4-(4-(2-chlorophenyl)-4-hydroxypiperidine-1-carbonyl)-3,5-difluorophenyl)quinoline-8-sulfonamide]
17 | 101 to 1000 | 101 to 1000 | 101 to 1000 | O=C(c1ccc(NS(=O)(=O)c2cccc3scnc23)cc1)N1CCC(O)(CCC(F)(F)F)CC1 [Compound 233, N-(4-(4-hydroxy-4-(3,3,3-trifluoropropyl)piperidine-1-carbonyl)phenyl)benzo[d]thiazole-4-sulfonamide]
18 | 101 to 1000 | 101 to 1000 | 101 to 1000 | O=C(c1ccc(NS(=O)(=O)c2ccc(F)c3nccnc23)cc1)N1CCC(O)(c2ccccc2Cl)CC1 [Compound 234, N-(4-(4-(2-chlorophenyl)-4-hydroxypiperidine-1-carbonyl)phenyl)-8-fluoroquinoxaline-5-sulfonamide]
19 | 101 to 1000 | 101 to 1000 | 101 to 1000 | O=C(c1ccc(NS(=O)(=O)c2cccc3scnc23)cc1)N1CCC(O)(CCC(F)F)CC1 [Compound 235, N-(4-(4-(3,3-difluoropropyl)-4-hydroxypiperidine-1-carbonyl)phenyl)benzo[d]thiazole-4-sulfonamide]

Row | AC50 [1] [nM] | AC50 [2] [nM] | AC50 [3] [nM] | SMILES
20 | 101 to 1000 | 101 to 1000 | 1010 to 10000 | O=C(c1ccc(NS(=O)(=O)c2cccc3cccnc23)cc1)N1CCC(CO)(c2ccccc2)CC1 [Compound 238]
21 | 101 to 1000 | 101 to 1000 |  | O=C(c1ccc(NS(=O)(=O)c2cccc(Cl)c2)cc1)N1CCC(O)(Cc2ccccc2)CC1 [Compound 281]
22 | 1010 to 10000 | 101 to 1000 |  | O=C(c1ccc(NS(=O)(=O)c2cccc(C(F)(F)F)c2)cc1)N1CCC(O)(Cc2ccccc2)CC1 [Compound 287]
23 | 1010 to 10000 | 101 to 1000 |  | O=C(c1ccc(NS(=O)(=O)c2ccc3c(c2)OCO3)cc1)N1CCC(O)(Cc2ccccc2)CC1 [Compound 288]
24 |  | 1010 to 10000 |  | O=C(c1ccc(NS(=O)(=O)c2ccc(Cl)cc2)cc1)N1CCC(O)(Cc2ccccc2)CC1 [Compound 299]
25 | 1010 to 10000 | 1010 to 10000 |  | CN(C)CC1(O)CCN(C(=O)c2ccc(NS(=O)(=O)c3cccc4cccnc34)cc2)CC1 [Compound 301]
26 | 1010 to 10000 | 1010 to 10000 |  | O=C(c1ccc(NS(=O)(=O)c2cccc3nonc23)cc1)N1CCC(O)(Cc2ccccc2)CC1 [Compound 310]
27 | > 10000 | 1010 to 10000 |  | O=C(c1ccc(NS(=O)(=O)c2cccnc2)cc1)N1CCC(O)(Cc2ccccc2)CC1 [Compound 315]
28 |  | > 10000 |  | N#Cc1cccc(S(=O)(=O)Nc2ccc(C(=O)N3CCC(O)(Cc4ccccc4)CC3)cc2)c1 [Compound 317]
29 | > 10000 | > 10000 |  | O=C(c1ccc(NS(=O)(=O)c2cccc3cnccc23)cc1)N1CCC(O)(c2ccccc2)CC1 [Compound 319]
30 | > 10000 | > 10000 |  | O=C(c1ccc(NS(=O)(=O)c2ccc(C(F)(F)F)cc2)cc1)N1CCC(O)(Cc2ccccc2)CC1 [Compound 321]
31 |  | > 10000 |  | O=C(c1ncc(NS(=O)(=O)c2cccc3cccnc23)cn1)N1CCC(O)(c2ccccc2)CC1 [Compound 323]
32 | 1010 to 10000 |  |  | O=C(c1ccc(NS(=O)(=O)c2cccc3cccnc23)cc1)N1CCC(O)(CN2CCCC2)CC1 [Compound 327]
33 | 101 to 1000 |  | 1010 to 10000 | CCOC(=O)C1(Cc2ccccc2)CCN(C(=O)c2ccc(NS(=O)(=O)c3cccc4cccnc34)cc2)CC1 [Compound 330]
34 | > 10000 | 1010 to 10000 |  | CC(C)CC1(O)CCN(C(=O)c2ccc(NS(=O)(=O)c3cnc(O)c4cccnc34)cc2)CC1 [Compound 416]
35 | > 10000 | > 10000 |  | CC(C)CC1(O)CCN(C(=O)c2ccc(NS(=O)(=O)c3cccc4snnc34)cc2)CC1 [Compound 419]
36 | 101 to 1000 |  | 101 to 1000 | CC(F)(F)CCC1(O)CCN(C(=O)c2ccc(NS(=O)(=O)c3cccc4scnc34)cc2)CC1 [Compound 440]
37 | 101 to 1000 |  | 1010 to 10000 | CC(C)CC1(O)CCN(C(=O)c2ccc(NS(=O)(=O)c3cccc4cncnc34)cc2)CC1 [Compound 441]
